Source: article PMC4852132 (Biochemistry, 2016)
Like-named read-outs stand apart in the source and are kept apart here.

Experiments:
E1p-ec [1] = biological target: T1, E1p-ec (Escherichia coli, UniProt P0AFG8); details: read-out: Ki,AcPhi, reversible tight-binding inhibitor; cited from earlier work
E1p-h [2] = biological target: T2, E1p-h (Homo sapiens, UniProt P08559+P11177); assay: CD titration of E1p-h by acetylphosphinate; format: binding; details: read-out: Kd,AcPhi
T2 sequence (P08559 30-390): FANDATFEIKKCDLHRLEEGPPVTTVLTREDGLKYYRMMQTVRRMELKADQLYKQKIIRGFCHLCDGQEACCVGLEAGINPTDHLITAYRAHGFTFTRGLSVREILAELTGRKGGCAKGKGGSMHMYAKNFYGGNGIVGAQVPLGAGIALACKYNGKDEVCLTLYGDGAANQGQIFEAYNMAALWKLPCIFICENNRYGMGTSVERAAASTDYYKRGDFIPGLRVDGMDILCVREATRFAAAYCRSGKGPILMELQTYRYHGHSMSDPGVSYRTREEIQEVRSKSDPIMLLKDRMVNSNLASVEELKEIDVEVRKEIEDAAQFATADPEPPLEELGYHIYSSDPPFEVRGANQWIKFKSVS
T2 sequence (P11177 31-359): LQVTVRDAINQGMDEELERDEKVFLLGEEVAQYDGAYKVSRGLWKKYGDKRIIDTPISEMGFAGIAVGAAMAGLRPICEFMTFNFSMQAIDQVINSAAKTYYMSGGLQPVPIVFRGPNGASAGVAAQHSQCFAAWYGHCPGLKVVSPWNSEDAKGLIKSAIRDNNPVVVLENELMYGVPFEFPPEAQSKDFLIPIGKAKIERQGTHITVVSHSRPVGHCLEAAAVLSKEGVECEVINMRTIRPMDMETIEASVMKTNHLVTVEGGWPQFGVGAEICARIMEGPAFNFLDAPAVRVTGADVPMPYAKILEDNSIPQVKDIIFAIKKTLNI

E1p-ec [3] = biological target: T1, E1p-ec; details: read-out: Kd,AcPhi; E1p-ec with ThDP; cited from earlier work
E1p-ec [4] = biological target: T1, E1p-ec; assay: CD titration of E1p-ec by acetylphosphinate; format: binding; details: for Kd: read-out: Kd,AcPhi
E1p-h [5] = biological target: T2, E1p-h; details: read-out: Ki,AcPhi; cited from earlier work
DXPS = DXPS (Escherichia coli, UniProt P77488); assay: CD titration of apo-DXPS with ThTTDP; format: binding; details: for Kd: read-out: Kd,ThTTDP, CD titration, CD331
[6] = UV spectroscopic determination of the pKa for N1-protonated bacimethrin; format: physicochemical; details: aqueous triple buffer
[7] = in the presence of 10 µM MeOThDP

DXPS, sequence (P77488 whole entry): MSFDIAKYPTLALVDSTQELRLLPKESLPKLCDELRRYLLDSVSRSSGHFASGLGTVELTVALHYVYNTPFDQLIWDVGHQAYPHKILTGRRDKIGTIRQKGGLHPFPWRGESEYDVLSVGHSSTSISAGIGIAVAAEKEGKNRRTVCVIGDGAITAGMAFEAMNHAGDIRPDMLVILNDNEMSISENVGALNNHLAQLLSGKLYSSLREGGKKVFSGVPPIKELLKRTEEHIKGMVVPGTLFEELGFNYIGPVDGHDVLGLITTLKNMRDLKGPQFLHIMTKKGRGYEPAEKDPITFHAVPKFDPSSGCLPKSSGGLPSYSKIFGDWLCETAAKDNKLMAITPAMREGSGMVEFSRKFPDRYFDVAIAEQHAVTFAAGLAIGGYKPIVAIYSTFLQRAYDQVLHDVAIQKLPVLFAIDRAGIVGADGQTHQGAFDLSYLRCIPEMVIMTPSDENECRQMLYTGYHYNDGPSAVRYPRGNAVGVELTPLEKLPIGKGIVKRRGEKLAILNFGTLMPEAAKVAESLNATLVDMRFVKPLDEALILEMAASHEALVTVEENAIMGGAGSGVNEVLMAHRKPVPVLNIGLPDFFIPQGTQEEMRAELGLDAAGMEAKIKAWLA
T1 sequence (P0AFG8 2-887 limits assumed): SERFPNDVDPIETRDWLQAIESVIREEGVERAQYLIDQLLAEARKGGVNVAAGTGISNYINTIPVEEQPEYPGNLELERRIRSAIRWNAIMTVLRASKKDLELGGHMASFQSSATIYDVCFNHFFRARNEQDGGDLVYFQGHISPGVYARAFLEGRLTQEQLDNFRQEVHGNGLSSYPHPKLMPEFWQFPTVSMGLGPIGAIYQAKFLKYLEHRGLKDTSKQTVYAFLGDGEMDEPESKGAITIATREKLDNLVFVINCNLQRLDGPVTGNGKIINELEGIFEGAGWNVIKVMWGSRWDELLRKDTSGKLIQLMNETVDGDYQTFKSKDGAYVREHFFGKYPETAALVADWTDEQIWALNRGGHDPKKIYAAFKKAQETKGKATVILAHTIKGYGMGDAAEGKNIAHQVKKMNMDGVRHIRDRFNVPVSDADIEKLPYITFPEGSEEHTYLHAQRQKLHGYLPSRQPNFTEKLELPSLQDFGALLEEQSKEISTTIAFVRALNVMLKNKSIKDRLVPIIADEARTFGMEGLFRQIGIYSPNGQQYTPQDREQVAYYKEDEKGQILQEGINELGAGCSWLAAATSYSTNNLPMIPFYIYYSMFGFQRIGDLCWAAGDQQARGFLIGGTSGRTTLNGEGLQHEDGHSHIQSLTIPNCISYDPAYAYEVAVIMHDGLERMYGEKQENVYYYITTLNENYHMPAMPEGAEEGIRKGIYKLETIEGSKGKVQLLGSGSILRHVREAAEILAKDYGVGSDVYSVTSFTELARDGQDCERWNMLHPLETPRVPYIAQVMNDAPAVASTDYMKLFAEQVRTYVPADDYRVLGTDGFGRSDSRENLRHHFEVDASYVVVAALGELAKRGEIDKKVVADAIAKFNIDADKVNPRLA

## CC(=O)[PH](=O)[O-].[Na+] [AcPhi, acetylphosphinic acid sodium salt]
E1p-ec [1]
  Ki: 0.76 µM
E1p-h [2]; E1p-h complexed with MeOThDP
  Kd: 1.36 µM
E1p-h [2]; E1p-h complexed with ThDP, unpublished data
  Kd: 0.043 µM
E1p-ec [3]
  Kd: 0.062 µM
E1p-ec [4]; E1p-ec complexed with ThDP
  [AcPhi]/[E1p-ec] molar ratio at maximal CD intensity: 1/1
E1p-ec [4]; E1p-ec complexed with 0.20 mM MeOThDP, CD303
  Kd: 1.88 µM
E1p-ec [4]; E1p-ec complexed with 0.20 mM ThDP, CD319
  Kd: 0.036 µM
E1p-h [5]
  Ki: 0.014 µM

## Cc1ncc(Cn2c(C)c(CCOP(=O)(O)OP(=O)(O)O)sc2=S)c(N)n1 [ThTTDP, Thiamin 2-thiothiazolone diphosphate]
DXPS; [7]
  [ThTTDP]/[DXPS active centers] molar ratio at saturation: 2.6
  Kd: 0.6 ± 0.14 µM
DXPS; no MeOThDP
  [ThTTDP]/[DXPS active centers] molar ratio at saturation: 1.26
  Kd: 0.39 ± 0.1 µM

## COc1ncc(CO)c(N)n1 [bacimethrin, 4-amino-5-hydroxymethyl-2-methoxypyrimidine]
[6]
  pKa: 5.32 ± 0.03
